Experimental data from ChEMBL document CHEMBL5543059, “Discovery of anti-inflammatory natural flavonoids: Diverse scaffolds and promising leads for drug discovery” (Eur J Med Chem, 2023).

tested on: BV-2; assay: Anti-inflammatory activity in mouse BV-2 cells assessed as reduction in LPS-induced NO production pre-treated with compounds for 2 hrs followed by LPS-stimulation measured for 22 hrs by Griess reagent based analysis; type: functional, cell-based; settings: not given

**Q.** `CC(C)=CCc1c(O)ccc(C(=O)/C=C/c2cc3c(cc2O)OCO3)c1O` was tested. Which IC50 did it give?
**A.** 5.9 µM

**Q.** Which IC50 does the source give for `COc1c(/C=C/C(=O)c2ccccc2)c(O)cc2occc12` here?
**A.** 10.9 µM

**Q.** For `CC(C)=CCc1cc(C(=O)/C=C/c2ccc(O)cc2O)c(O)cc1O`, which IC50 is on record?
**A.** 2.26 µM

**Q.** Which IC50 does the source give for `COc1c([C@@H](CC(=O)c2ccccc2)OC)c(O)cc2occc12` here?
**A.** 29.2 µM

tested on: Macrophage; assay: Anti-inflammatory activity in mouse macrophages extracted from abdominal activity assessed as inhibition of LPS-induced nitric oxide production; type: functional, cell-based; settings: not given

**Q.** How did the IC50 turn out when `COc1cc2occ(-c3ccc(O)cc3)c(=O)c2c(OC)c1CC=C(C)C` was run?
**A.** 2.46 µM

**Q.** Which IC50 does the source give for `COc1ccc(-c2coc3cc(OC)c(CC=C(C)C)c(OC)c3c2=O)cc1` here?
**A.** 2.06 µM

**Q.** With `COc1cc(-c2coc3cc(O)c(CC=C(C)C)c(O)c3c2=O)c(O)cc1O` as the molecule, how does the IC50 read?
**A.** 6.72 µM

**Q.** `COc1ccc(-c2coc3cc(O)c(CC=C(C)C)c(O)c3c2=O)c(O)c1` was tested. Which IC50 did it give?
**A.** 4.68 µM

**Q.** With `COc1c(O)cc2oc(-c3ccc(O)c(O)c3)cc(=O)c2c1O` [EUPAFOLIN] as the molecule, how does the IC50 read?
**A.** 60 µM

**Q.** How did the IC50 turn out when `COc1cc(-c2coc3cc(O)c(CC=C(C)C)c(O)c3c2=O)c(OC)cc1O` [VIRIDIFLORIN] was run?
**A.** 5.36 µM

tested on: RAW264.7; assay: Antiinflammatory activity in LPS-activated mouse RAW264.7 cells assessed as inhibition of ROS production at 10 uM relative to control; type: functional; parameters: scale not given: the % may be the effect or the level left; settings: not given

**Q.** Which Activity does the source give for `COc1c(/C=C/C(=O)c2ccc(O)cc2)ccc(O)c1O` here?
**A.** 80%

**Q.** How did the Activity turn out when `C=CC(C)(C)c1cc(/C=C/C(=O)c2ccc(O)cc2)c(OC)c(O)c1O` was run?
**A.** 80%

**Q.** `COc1cc(O)ccc1/C=C/C(=O)c1ccc(O)cc1` [ECHINATIN] was tested. Which Activity did it give?
**A.** 80%

tested on: RAW264.7; assay: Antiinflammatory activity in mouse RAW264.7 cells assessed as decrease in LPS-induced IL-6 secretion after 24 hrs by ELISA method; type: functional, cell-based; settings: RAW264.7, 24 h

**Q.** With `COc1ccc2c(c1)O[C@H](c1ccc(O)cc1O)CC2` as the molecule, how does the IC50 read?
**A.** 21.8 µM

**Q.** With `COc1ccc([C@@H]2CCc3cc(OC)c(O)cc3O2)cc1O` as the molecule, how does the IC50 read?
**A.** 12.5 µM

**Q.** How did the IC50 turn out when `COc1cc2c(c(C)c1OC)O[C@H](c1cc(O)c(OC)c(O)c1)CC2` was run?
**A.** 18 µM

tested on: RAW264.7; assay: Anti-inflammatory activity in LPS-stimulated mouse RAW264.7 cells assessed as inhibition of NO production incubated for 24 hrs by Griess reagent based assay; type: functional, cell-based; settings: RAW264.7, 24 h

**Q.** Which IC50 does the source give for `COc1cc(O)c2c(=O)cc(-c3ccc(O)cc3)oc2c1` [GENKWANIN] here?
**A.** 5.64 µM

tested on: BV-2; assay: Anti-inflammatory activity in mouse BV-2 cells assessed as reduction in LPS-induced NO production pretreated for 1 hr followed by LPS-stimulation and measured after 18 hrs by 2,3-diaminonaphthalene reagent based fluorescence analysis; type: functional, cell-based; settings: not given

**Q.** `Oc1ccc2c(c1)OC[C@H](c1cc3c(cc1O)OCO3)[C@H]2O` was tested. Which IC50 did it give?
**A.** 40.1 µM

**Q.** Which IC50 does the source give for `COc1c(O)ccc2c1OC[C@H](c1cc3c(cc1O)OCO3)[C@H]2O` here?
**A.** 46.3 µM

**Q.** How did the IC50 turn out when `COc1ccc(-c2cc3cc(O)c(O)cc3oc2=O)c(OC)c1OC` was run?
**A.** 28.3 µM

tested on: Peritoneal macrophage; assay: Antiinflammatory activity in mouse peritoneal macrophages assessed as fold reduction in LPS-induced TNFalpha level at 20 uM incubated for 4 hrs by ELISA method; type: functional; settings: not given

**Q.** `O=C(O)Cc1ccccc1Nc1c(Cl)cccc1Cl` [DICLOFENAC] was tested. Which “fold change (FC)” value did it give?
**A.** 1.8

tested on: RAW264.7; assay: Antiinflammatory activity against mouse RAW264.7 cells assessed as reduction of LPS-induced NO production; type: functional, cell-based; settings: not given

**Q.** `CC(C)=CCc1cc([C@@H]2CCc3ccc(O)cc3O2)ccc1O` was tested. Which IC50 did it give?
**A.** 28.4 µM

**Q.** How did the IC50 turn out when `CC(C)=CCc1c([C@@H]2CCc3ccc(O)cc3O2)cc2c(c1O)OC(C)(C)C=C2` [KAZINOL B] was run?
**A.** 29.3 µM

tested on: Neutrophil; assay: Inhibition of fMLF/CB-induced human Neutrophil activation assessed as reduction in superoxide anion; type: functional, cell-based; settings: not given

**Q.** For `CC1(C)CCC[C@@]2(C)Oc3c(ccc4oc(-c5ccc(O)c(O)c5)cc(=O)c34)C[C@@]12C`, which IC50 is on record?
**A.** 2.2 µM

**Q.** `Cc1cc2oc(-c3ccc(O)c(O)c3)cc(=O)c2c2c1C[C@@]1(C)C(C)(C)CCC[C@@]1(C)O2` was tested. Which IC50 did it give?
**A.** 5.8 µM

**Q.** How did the IC50 turn out when `O=C1C[C@@H](c2ccc(O)cc2)Oc2cc(O)cc(O)c21` [NARINGENIN] was run?
**A.** 3.3 µM

**Q.** With `O=S(=O)(F)Cc1ccccc1` [PHENYLMETHYLSULFONYLFLUORIDE] as the molecule, how does the IC50 read?
**A.** 95 µM

tested on: J774.A1; assay: Antiinflammatory activity in LPS-induced mouse J774.A1 macrophage cells assessed as reduction in LPS-induced IL-1 beta level; type: functional, cell-based; settings: not given

**Q.** Which IC50 does the source give for `COc1c2c(cc3oc(-c4ccccc4)cc(=O)c13)OCO2` here?
**A.** 6.4 µM

**Q.** For `COc1cc2oc(-c3ccccc3)cc(=O)c2c(O)c1O`, which IC50 is on record?
**A.** 6.4 µM

**Q.** `COc1cc2oc(-c3ccccc3)cc(=O)c2c(O)c1OC` [MOSLOFLAVONE] was tested. Which IC50 did it give?
**A.** 6.4 µM

tested on: RAW264.7; assay: Anti-inflammatory activity in mouse RAW264.7 cells assessed as inhibition of LPS-induced nitric oxide production preincubated for 2 hrs followed by LPS stimulation and measured after 24 hrs by Griess assay; type: functional, cell-based; settings: not given

**Q.** With `CC1(C)C=Cc2cc(-c3coc4cc(O)cc(O)c4c3=O)cc(O)c2O1` as the molecule, how does the IC50 read?
**A.** 20 µM

**Q.** With `CC(C)=CCc1c(O)ccc(-c2coc3c(CC=C(C)C)c(O)cc(O)c3c2=O)c1O` as the molecule, how does the IC50 read?
**A.** 0.25 µM

**Q.** How did the IC50 turn out when `CC1(C)C=Cc2c(O)ccc(-c3coc4cc(O)cc(O)c4c3=O)c2O1` was run?
**A.** 0.8 µM

tested on: BV-2; assay: Antiinflammatory activity against mouse BV-2 cells assessed as reduction in LPS induced NO production measured for 24 hrs by Griess reagent based analysis; type: functional, cell-based; settings: BV-2, 24 h

**Q.** For `Oc1cc(O)c2c(c1)O[C@@H](c1ccc(O)c(O)c1)[C@@H](O)C2` [(+)-EPICATECHIN], which IC50 is on record?
**A.** 29.1 µM

**Q.** For `Oc1cc(O)c2c(c1)O[C@H](c1ccc(O)c(O)c1)[C@@H](O)C2` [CIANIDANOL], which IC50 is on record?
**A.** 26.1 µM

**Q.** With `Oc1cc(O)c2c(c1)O[C@H](c1cc(O)c(O)c(O)c1)[C@@H](O)C2` [GALLOCATECHIN] as the molecule, how does the IC50 read?
**A.** 30.3 µM

tested on: J774.A1; assay: Anti-inflammatory activity in mouse J774.A1 macrophage cells assessed as reduction in LPS-induced TNF-alpha production; type: functional, cell-based; settings: not given

**Q.** How did the IC50 turn out when `COc1c2c(cc3oc(-c4ccccc4)cc(=O)c13)OCO2` was run?
**A.** 0.22 µM

**Q.** How did the IC50 turn out when `COc1cc2oc(-c3ccccc3)cc(=O)c2c(O)c1O` was run?
**A.** 0.22 µM

**Q.** With `COc1cc2oc(-c3ccccc3)cc(=O)c2c(O)c1OC` [MOSLOFLAVONE] as the molecule, how does the IC50 read?
**A.** 0.22 µM

tested on: Neutrophil; assay: Inhibition of fMLF/CB-induced human Neutrophil activation assessed as reduction in elastase release; type: functional, cell-based; settings: not given

**Q.** How did the IC50 turn out when `CC1(C)CCC[C@@]2(C)Oc3c(ccc4oc(-c5ccc(O)c(O)c5)cc(=O)c34)C[C@@]12C` was run?
**A.** 1.9 µM

**Q.** `Cc1cc2oc(-c3ccc(O)c(O)c3)cc(=O)c2c2c1C[C@@]1(C)C(C)(C)CCC[C@@]1(C)O2` was tested. Which IC50 did it give?
**A.** 3.8 µM

**Q.** With `O=C1C[C@@H](c2ccc(O)cc2)Oc2cc(O)cc(O)c21` [NARINGENIN] as the molecule, how does the IC50 read?
**A.** 5.3 µM

tested on: Mus musculus; assay: Antiinflammatory activity against TPA-induced CD-1 mouse ear edema model assessed as reduction in ear edema at 0.25 mg/kg relative to control; type: functional; parameters: scale not given: the % may be the effect or the level left; settings: not given

**Q.** For `O=C1C[C@@H](c2ccc(O)cc2)Oc2cc(O)cc(O)c21` [NARINGENIN], which Activity is on record?
**A.** 42%
